In patent US9512144B2, “Imidazothiazole sufonamides as nematicides” (BAYER CROPSCIENCE AKTIENGESELLSCHAFT, priority 2013, dated 2016):

Columns and labels:
Format in all cases: in vivo
[1] = system: Meloidogyne incognita; experiment: Meloidogyne incognita test (MELGIN): sand, salad seeds, gall formation after 14 days; details: application rate 20 ppm, salad seedlings in sand
Protocol: Solvent: 125.0 parts by weight of acetone To produce a suitable preparation of active compound, 1 part by weight of active compound is mixed with the stated amount of solvent, and the concentrate is diluted with water to the desired concentration. Vessels are filled with sand, a solution of the active ingredient, a suspension containing eggs and larvae of the southern root-knot nematode (Meloidogyne incognita) and salad seeds. The salad seeds germinate and the seedlings grow. Galls develop in the roots. After 14 days the nematicidal activity is determined on the basis of the percentage of gall formation. 100% means that no galls were found; 0% means that the number of galls found on the roots of the treated plants was equal to that in untreated control plants.

[2] = system: Meloidogyne incognita; experiment: Meloidogyne incognita test: compound solution poured into pots with soil (loamy sand), salad seeds, gall formation after 21 days; details: salad in soil
Protocol: Solvent: 7 parts by weight of dimethylformamide Emulsifier: 2.5 parts by weight of alkylarylpolyglycolether To produce a suitable preparation of active compound, 1 part by weight of active compound is mixed with the stated amount of solvent and emulsifier and is diluted with water to the desired concentration. In the calculation of the concentration the soil volume has to be included. […] Further test concentrations are prepared by dilution with water. The compound solution is poured into pots filled with soil (loamy sand). A suspension containing eggs and larvae of the southern root-knot nematode (Meloidogyne incognita) is added, salad seeds are spread on the soil surface and covered with quartz sand. The salad seeds germinate and the seedlings grow. Galls develop on the roots. After 21 days the nematicidal activity is determined on the basis of the percentage of gall formation. 100% means no galls were found; 0% means the number of galls found on the roots of the treated plants was equal to that in untreated control plants.

[3] = system: Meloidogyne incognita; experiment: Meloidogyne incognita spray test (MELGIN): leaves of salad and tomato plants sprayed, gall formation 24 days after spraying
Protocol: Solvent: 7 parts by weight of dimethylformamide Emulsifier: alkylaryl polyglycol ether To produce a suitable preparation of active compound, 1 part by weight of active compound is mixed with the stated amount of solvent and is diluted with water, containing an emulsifier concentration of 1000 ppm, to the desired concentration. Further test concentrations are prepared by dilution with emulsifier containing water. Ammonium sulfate and rape oil methyl ester (RME) in a dosage of 1000 ppm are added to the desired concentration. Salad and tomato plants are treated by being sprayed on the leaves with the preparation of the active compound of the desired concentration, the soil surface is covered by a protection film. 3 days after spraying, a suspension containing eggs and larvae of the southern root-knot nematode (Meloidogyne incognita) is added on the soil surface. Galls develop on the roots. 24 days after spraying, the nematicidal activity is determined on the basis of the percentage of gall formation. 100% means no galls were found; 0% means the number of galls found on the roots of the treated plants was equal to that in untreated control plants. […] Test plant: Tomato, Lycopersicon esculentum Test plant: Salad, Lactuca sativa

Row | SMILES | nematicidal activity on the basis of the percentage of gall formation (100% = no galls) [1] [%] | nematicidal activity on the basis of the percentage of gall formation (100% = no galls) ([2]; application rate 8 ppm) [%] | nematicidal activity on the basis of the percentage of gall formation (100% = no galls) ([2]; application rate 4 ppm) [%] | further results
1 | Cc1ccc(C)c(S(=O)(=O)NC(=O)c2cn3cc(C(F)(F)F)sc3n2)c1 [Example I-1-9] | 100 | 100 | – | –
2 | COc1ccc(Br)c(S(=O)(=O)NC(=O)c2cn3cc(C(F)(F)C(F)(F)F)sc3n2)c1 [Example I-1-243] | 100 | 95 | – | –
3 | Cc1c(C(F)(F)C(F)(F)F)sc2nc(C(=O)NS(=O)(=O)c3c(F)cccc3F)cn12 [Example I-1-252] | 90 | 95 | – | –
4 | Cc1ccc(C)c(S(=O)(=O)NC(=O)c2cn3c(C)c(C(F)(F)F)sc3n2)c1 [Example I-1-291] | 100 | – | 85 | –
5 | O=C(NS(=O)(=O)c1cc(C(F)(F)F)ccc1Br)c1cn2cc(C(F)(F)C(F)(F)F)sc2n1 [Example I-1-223] | 100 | – | 80 | –
6 | O=C(NS(=O)(=O)c1cc(C(F)(F)F)ccc1Cl)c1cn2cc(C(F)(F)F)sc2n1 [Example I-1-4] | 100 | – | – | nematicidal activity on the basis of the percentage of gall formation (100% = no galls) ([2]; application rate 2 ppm): 97%; nematicidal activity on the basis of the percentage of gall formation (100% = no galls) ([3]; test plant Salad, Lactuca sativa, leaf spray 100 ppm): 0%; nematicidal activity on the basis of the percentage of gall formation (100% = no galls) ([3]; test plant Salad, Lactuca sativa, leaf spray 1000 ppm): 20%; nematicidal activity on the basis of the percentage of gall formation (100% = no galls) ([3]; test plant Salad, Lactuca sativa, leaf spray 2500 ppm): 75%; nematicidal activity on the basis of the percentage of gall formation (100% = no galls) ([3]; test plant Tomato, Lycopersicon esculentum, leaf spray 100 ppm): 25%; nematicidal activity on the basis of the percentage of gall formation (100% = no galls) ([3]; test plant Tomato, Lycopersicon esculentum, leaf spray 1000 ppm): 35%; nematicidal activity on the basis of the percentage of gall formation (100% = no galls) ([3]; test plant Tomato, Lycopersicon esculentum, leaf spray 2500 ppm): 98%
7 | CC(C)Oc1ccc(Cl)c(S(=O)(=O)NC(=O)c2cn3cc(C(F)(F)F)sc3n2)c1 [Example I-1-208] | 100 | – | – | nematicidal activity on the basis of the percentage of gall formation (100% = no galls) ([2]; application rate 1 ppm): 90%
8 | Cc1c(C(F)(F)C(F)(F)F)sc2nc(C(=O)NS(=O)(=O)c3ccccc3Cl)cn12 [Example I-1-255] | 100 | 100 | – | –
9 | Cc1c(C(F)(F)F)sc2nc(C(=O)NS(=O)(=O)c3cc(C(F)(F)F)ccc3Cl)cn12 [Example I-1-289] | 100 | – | 85 | –
10 | O=C(NS(=O)(=O)c1ccccc1Cl)c1cn2cc(C(F)(F)C(F)(F)F)sc2n1 [Example I-1-142] | 100 | – | 80 | –
11 | O=C(NS(=O)(=O)c1c(F)cccc1F)c1cn2cc(C(F)(F)C(F)(F)F)sc2n1 [Example I-1-222] | 100 | 90 | – | –
12 | Cc1ccc(Cl)cc1S(=O)(=O)NC(=O)c1cn2cc(C(F)(F)F)sc2n1 [Example I-1-8] | 100 | – | 95 | –
13 | O=C(NS(=O)(=O)c1ccccc1Br)c1cn2cc(C(F)(F)C(F)(F)F)sc2n1 [Example I-1-227] | 100 | 100 | – | –
14 | CCOc1ccc(Cl)c(S(=O)(=O)NC(=O)c2cn3cc(C(F)(F)F)sc3n2)c1 [Example I-1-286] | 100 | – | – | nematicidal activity on the basis of the percentage of gall formation (100% = no galls) ([2]; application rate 1 ppm): 85%
15 | CCCOc1ccc(Cl)c(S(=O)(=O)NC(=O)c2cn3cc(C(F)(F)F)sc3n2)c1 [Example I-1-207] | 100 | – | 95 | –
16 | O=C(NS(=O)(=O)c1ccccc1F)c1cn2cc(C(F)(F)C(F)(F)F)sc2n1 [Example I-1-226] | 100 | 80 | – | –

Row | SMILES | nematicidal activity on the basis of the percentage of gall formation (100% = no galls) [1] [%] | nematicidal activity on the basis of the percentage of gall formation (100% = no galls) ([2]; application rate 8 ppm) [%] | nematicidal activity on the basis of the percentage of gall formation (100% = no galls) ([2]; application rate 4 ppm) [%] | further results
17 | Cc1c(C(F)(F)F)sc2nc(C(=O)NS(=O)(=O)c3ccccc3Cl)cn12 [Example I-1-154] | 90 | – | 99 | –
18 | O=C(NS(=O)(=O)c1cc(Cl)ccc1Br)c1cn2cc(C(F)(F)F)sc2n1 [Example I-1-205] | 100 | – | 95 | –
19 | COc1ccc(Cl)c(S(=O)(=O)NC(=O)c2cn3c(C)c(C(F)(F)C(F)(F)F)sc3n2)c1 [Example I-1-251] | 100 | 98 | – | –
20 | Cc1ccc(C)c(S(=O)(=O)NC(=O)c2cn3cc(C(F)(F)C(F)(F)F)sc3n2)c1 [Example I-1-225] | 90 | 80 | – | –
21 | O=C(NS(=O)(=O)c1ccccc1Cl)c1cn2cc(C(F)(F)F)sc2n1 [Example I-1-3] | 100 | – | – | nematicidal activity on the basis of the percentage of gall formation (100% = no galls) ([2]; application rate 2 ppm): 95%
22 | COc1ccc(Cl)c(S(=O)(=O)NC(=O)c2cn3cc(C(F)(F)C(F)(F)F)sc3n2)c1 [Example I-1-147] | 100 | 85 | – | –
23 | O=C(NS(=O)(=O)c1c(Cl)cccc1Cl)c1cn2cc(C(F)(F)C(F)(F)F)sc2n1 [Example I-1-146] | 100 | 90 | – | –
24 | COc1ccc(Cl)c(S(=O)(=O)NC(=O)c2cn3cc(C(F)(F)F)sc3n2)c1 [Example I-1-1, N-[(2-chloro-5-methoxyphenyl)sulfonyl]-2-(trifluoromethyl)imidazo[2,1-b][1,3]thiazole-6-carboxamide] | 100 | – | – | nematicidal activity on the basis of the percentage of gall formation (100% = no galls) ([2]; application rate 2 ppm): 95%
25 | O=C(NS(=O)(=O)c1cc(C(F)(F)F)ccc1Br)c1cn2cc(C(F)(F)F)sc2n1 [Example I-1-5] | 100 | – | 90 | –
26 | COc1ccc(F)c(S(=O)(=O)NC(=O)c2cn3cc(C(F)(F)F)sc3n2)c1 [Example I-1-27] | 100 | – | – | nematicidal activity on the basis of the percentage of gall formation (100% = no galls) ([2]; application rate 2 ppm): 80%
27 | Cc1c(C(F)(F)C(F)(F)F)sc2nc(C(=O)NS(=O)(=O)c3c(Cl)cccc3Cl)cn12 [Example I-1-254] | 100 | 85 | – | –
28 | O=C(NS(=O)(=O)c1cc2c(cc1Cl)OC(F)(F)O2)c1cn2cc(C(F)(F)F)sc2n1 [Example I-1-12] | 100 | 95 | – | –
29 | O=C(NS(=O)(=O)c1cc(Br)ccc1Cl)c1cn2cc(C(F)(F)F)sc2n1 [Example I-1-209] | 100 | – | 90 | –
30 | COc1ccc(Br)c(S(=O)(=O)NC(=O)c2cn3cc(C(F)(F)F)sc3n2)c1 [Example I-1-206] | 100 | – | 100 | –
31 | O=C(NS(=O)(=O)c1c(Cl)cccc1Cl)c1cn2cc(C(F)(F)F)sc2n1 [Example I-1-10] | 100 | 98 | – | –
